Data from article PMC10294756 (Journal of Enzyme Inhibition and Medicinal Chemistry, 2023).

Tests used:
HuH7 cells [1] = test: Cell cycle analysis by flow cytometry, HuH7; format: cell-based, human; conditions: 10 h
HuH7 [2] = test: MTT assay, HuH7 cells; format: cell-based, human; conditions: Homo sapiens, Huh-7, 48 h, read-out: IC50 HuH7
SMMC-7721 = test: MTT assay, SMMC-7721 cells; format: cell-based, human; conditions: Homo sapiens, SMMC-7721, 48 h, read-out: IC50 SMMC-7721
HepG2 cells [3] = test: Annexin V-FITC/PI apoptosis detection assay, HepG2; format: cell-based, human; conditions: HepG2, 1.0 μM, 24 h
LO2 = test: MTT assay, normal hepatocyte LO2; format: cell-based, human; conditions: Homo sapiens, L02, 48 h, read-out: IC50 LO2, normal liver cell line, MTT, 48 h
[4] = test system: HCC cell lines (HepG2, HuH7, and SMMC-7721); test: MTT assay, results stated over the three HCC cell lines; format: cell-based; conditions: Homo sapiens, 48 h, read-out: IC50 against HCC cells (span over cell lines)
[5] = test system: transcriptional activity of Nur77 in Hela cells; test: Dual-luciferase reporter assay; format: cell-based; conditions: 24 h treatment
A549-Nur77-/- cells = test: Cell cycle analysis by flow cytometry, A549 Nur77-/-; format: cell-based, human; conditions: 10 h
HepG2 [6] = test: Colony formation assay, HepG2; format: cell-based, human; conditions: HepG2, one week
[7] = test system: cleaved-PARP, LC3-II and Nur77 in HepG2 cells; test: Western blotting, HepG2 cells; format: cell-based, human
HepG2 [8] = test: MTT assay, HepG2 cells; format: cell-based, human; conditions: Homo sapiens, HepG2, 48 h, read-out: IC50 HepG2
HuH7 cells [9] = test: Annexin V-FITC/PI apoptosis detection assay, HuH7; format: cell-based, human; conditions: 24 h
HuH7 [10] = test: Colony formation assay, HuH7; format: cell-based, human; conditions: HuH7, one week
HepG2 cells [11] = test: Cell cycle analysis by flow cytometry, HepG2; format: cell-based, human; conditions: 10 h
[12] = test system: cleaved-PARP and LC3-II in HuH7 cells; test: Western blotting, HuH7 cells; format: cell-based, human; conditions: HuH7, 24 h
In vivo PK study = test: In vivo PK study; set-up: species or system Sprague-Dawley (SD) rats
[13] = female, Sprague-Dawley, rat, plasma, iv, 2 mg/kg
[14] = female, Sprague-Dawley, rat, plasma, po, 20 mg/kg

Cc1cc(Nc2ccc(C(=O)N/N=C/c3scnc3C)cc2)c2cccc(O)c2n1 [TMHA37, (E)-4-((8-hydroxy-2-methylquinolin-4-yl)amino)-N'-((4-methylthiazol-5-yl)methylene)benzohydrazide]
cells in G2 (G2/M) (HuH7 cells [1]; HuH7, TMHA37 1 μM): 20.07% | cells in G2 (G2/M) (HuH7 cells [1]; HuH7, TMHA37 10 μM): 48.26% | IC50 (HuH7 [2]): 4.09 ± 0.89 µM | IC50 (SMMC-7721): 7.68 ± 1.3 µM | apoptotic cells (HepG2 cells [3]): 6.42% | IC50 (LO2): 21.2 ± 1.79 µM | IC50 [4]: 2.33 to 7.68 µM | reporter activity [5]: significantly increased the reporter fluorescence intensity in a dose-dependent manner | TMHA37-caused G2/M arrest in Nur77-knockdown A549 cells compared to control cells (A549-Nur77-/- cells): significantly decreased | colony formation (HepG2 [6]): significantly and dose-dependently inhibited the colony formation | Nur77 protein expression in cytoplasm and nucleus ([7]; HepG2, 10 μM, 3 h): increased the protein expression levels of Nur77 in both cytoplasm and nuclear | LC3-II level ([7]; HepG2, 24 h): dose-dependently increased the level of LC3-II | cleaved-PARP level ([7]; HepG2, 24 h): dose-dependent upregulation of cleaved-PARP | IC50 (HepG2 [8]): 2.33 ± 0.14 µM | apoptotic cells (HuH7 cells [9]; HuH7, 1.0 μM): 12.82% | apoptotic cells (HuH7 cells [9]; HuH7, 10.0 μM): 69.50% | colony formation (HuH7 [10]): significantly and dose-dependently inhibited the colony formation | cells in G2 (G2/M) (HepG2 cells [11]; HepG2, TMHA37 1 μM): 26.72% | cells in G2 (G2/M) (HepG2 cells [11]; HepG2, TMHA37 10 μM): 63.17% | LC3-II level [12]: dose-dependently increased the level of LC3-II | cleaved-PARP level [12]: dose-dependent upregulation of cleaved-PARP | CL (In vivo PK study; SD rats, p.o. 20 mg/kg): 1986.3 ± 307.2 mL/min/kg | Vz (In vivo PK study; SD rats, p.o. 20 mg/kg): 192.55 ± 22.13 L/kg | AUC(0-inf) (In vivo PK study; [13]): 247 ± 72.6 ng·h/mL | Cmax (In vivo PK study; [13]): 293 ± 45.5 ng/mL | Tmax (In vivo PK study; [13]): 0.08 h | Vd (In vivo PK study; [13]): 22.2 ± 10.1 L/kg | clearance (In vivo PK study; [13]): 143 mL/min/kg | half-life (In vivo PK study; [13]): 1.54 ± 0.35 h | AUC(0-inf) (In vivo PK study; [14]): 170 ± 25.4 ng·h/mL | Cmax (In vivo PK study; [14]): 19.6 ± 0.97 ng/mL | Tmax (In vivo PK study; [14]): 5.83 ± 3.75 h | half-life (In vivo PK study; [14]): 1.13 ± 0.09 h
